Calls of active or inactive are those of the source. No cut-off for these calls is given here.
What was measured:
HCT-116 [1] = assay: Antiproliferative activity against human HCT116 cells after 72 hrs by MTT assay; type: functional, cell-based; conditions: HCT-116, 72 h
HCT-15 = assay: Antiproliferative activity against human HCT15 cells after 72 hrs by MTT assay; type: functional, cell-based; conditions: HCT-15, 72 h
[2] = Antiproliferative activity against human GBM10 cells after 72 hrs by MTT assay; type: functional, cell-based; conditions: GBM10, 72 h
A2780 [3] = assay: Antiproliferative activity against human A2780 cells after 72 hrs by MTT assay; type: functional, cell-based; conditions: A2780, 72 h
HCT-116 [4] = assay: Inhibition of colony formation in human HCT116 cells at 1 to 2 uM after 24 hrs by crystal violet dye based assay; type: functional, cell-based
A2780 [5] = assay: Inhibition of colony formation in human A2780 cells at 1 to 2 uM after 24 hrs by crystal violet dye based assay; type: functional, cell-based
HCT-116 [6] = assay: Cell cycle arrest in human HCT116 cells assessed as accumulation at G1 phase at 1 uM measured after overnight incubation by propidium iodide staining-based flow cytometry (reference value: 63.5%); type: functional
HCT-116 [7] = assay: Cell cycle arrest in human HCT116 cells assessed as accumulation at […] at 1 uM measured after overnight incubation by propidium iodide staining-based flow cytometry (reference value: 9.70%); type: functional
HCT-116 [8] = assay: Cell cycle arrest in human HCT116 cells assessed as accumulation at G1 phase at 2 uM measured after overnight incubation by propidium iodide staining-based flow cytometry (reference value: 63.5%); type: functional
HCT-116 [9] = assay: Cell cycle arrest in human HCT116 cells assessed as accumulation at G2 phase at 2 uM measured after overnight incubation by propidium iodide staining-based flow cytometry (reference value: 24%); type: functional
2008 [10] = assay: Cell cycle arrest in human OV2008 cells assessed as accumulation at subG1 phase at 1 uM measured after overnight incubation by propidium iodide staining-based flow cytometry (reference value: 2.64%); type: functional
2008 [11] = assay: Cell cycle arrest in human OV2008 cells assessed as accumulation at G1 phase at 1 uM measured after overnight incubation by propidium iodide staining-based flow cytometry (reference value: 52.6%); type: functional
2008 [12] = assay: Cell cycle arrest in human OV2008 cells assessed as accumulation at G2 phase at 1 uM measured after overnight incubation by propidium iodide staining-based flow cytometry (reference value: 26.9%); type: functional
2008 [13] = assay: Cell cycle arrest in human OV2008 cells assessed as accumulation at S phase at 2 uM measured after overnight incubation by propidium iodide staining-based flow cytometry (reference value: 10.8%); type: functional
A2780 [14] = assay: Cell cycle arrest in human A2780 cells assessed as accumulation at subG1 phase at 1 uM measured after overnight incubation by propidium iodide staining-based flow cytometry (reference value: 8.88%); type: functional
A2780 [15] = assay: Cell cycle arrest in human A2780 cells assessed as accumulation at S phase at 1 uM measured after overnight incubation by propidium iodide staining-based flow cytometry (reference value: 15.2%); type: functional
A2780 [16] = assay: Cell cycle arrest in human A2780 cells assessed as accumulation at G2 phase at 1 uM measured after overnight incubation by propidium iodide staining-based flow cytometry (reference value: 24.9%); type: functional
A2780 [17] = assay: Cell cycle arrest in human A2780 cells assessed as accumulation at S phase at 2 uM measured after overnight incubation by propidium iodide staining-based flow cytometry (reference value: 15.2%); type: functional
HCT-116 [18] = assay: Induction of cellular oxidative stress in human HCT116 cells assessed as increase in ROS levels at 0.5 to 4 uM after 48 hrs by DCFDA dye-based fluorescence microscopic method; type: functional, cell-based
HCT-116 [19] = assay: Induction of mitotic catastrophe in human HCT116 cells assessed as formation of large with flattened cells at 0.5 to 2 uM measured after overnight incubation by DAPI-staining based microscopy; type: functional, cell-based
HCT-116 [20] = assay: Induction of apoptosis in human HCT116 cells assessed as cell shrinkage at 0.5 to 2 uM measured after overnight incubation by DAPI-staining based microscopy; type: functional
2008 [21] = assay: Induction of apoptosis in human OV2008 cells assessed as cell shrinkage at 0.5 to 2 uM measured after overnight incubation by DAPI-staining based microscopy; type: functional
HCT-116 [22] = assay: Induction of apoptosis in human HCT116 cells assessed as condensation of nuclei at 0.5 to 2 uM measured after overnight incubation by DAPI-staining based microscopy; type: functional, cell-based
2008 [23] = assay: Induction of apoptosis in human OV2008 cells assessed as condensation of nuclei at 0.5 to 2 uM measured after overnight incubation by DAPI-staining based microscopy; type: functional, cell-based
2008 [24] = assay: Induction of mitotic catastrophe in human OV2008 cells assessed as formation of de-condensed multiple micronuclei at 0.5 to 2 uM measured after overnight incubation by DAPI-staining based microscopy; type: functional, cell-based
HCT-116 [25] = assay: Induction of apoptosis in human HCT116 cells assessed as late apoptotic cells at 1 uM measured after overnight incubation by mitotracker red/alexa fluor-488 Annexin V staining-based flow cytometry (reference value: 0%); type: functional
HCT-116 [26] = assay: Induction of apoptosis in human HCT116 cells assessed as viable cells at 2 uM measured after overnight incubation by mitotracker red/alexa fluor-488 Annexin V staining-based flow cytometry (reference value: 89%); type: functional; conditions: read-out: Activity
HCT-116 [27] = assay: Induction of apoptosis in human HCT116 cells assessed as late apoptotic cells at 2 uM measured after overnight incubation by mitotracker red/alexa fluor-488 Annexin V staining-based flow cytometry (reference value: 0%); type: functional
HCT-116 [28] = assay: Induction of apoptosis in human HCT116 cells assessed as necrotic cells at 2 uM measured after overnight incubation by mitotracker red/alexa fluor-488 Annexin V staining-based flow cytometry (reference value: 2.67%); type: functional
2008 [29] = assay: Induction of apoptosis in human OV2008 cells assessed as necrotic cells at 1 uM measured after overnight incubation by mitotracker red/alexa fluor-488 Annexin V staining-based flow cytometry (reference value: 6.31%); type: functional
2008 [30] = assay: Induction of apoptosis in human OV2008 cells assessed as viable cells at 2 uM measured after overnight incubation by mitotracker red/alexa fluor-488 Annexin V staining-based flow cytometry (reference value: 80.5%); type: functional; conditions: read-out: Activity
2008 [31] = assay: Induction of apoptosis in human OV2008 cells assessed as early apoptotic cells at 2 uM measured after overnight incubation by mitotracker red/alexa fluor-488 Annexin V staining-based flow cytometry (reference value: 12.9%); type: functional
A2780 [32] = assay: Induction of apoptosis in human A2780 cells assessed as viable cells at 2 uM measured after overnight incubation by mitotracker red/alexa fluor-488 Annexin V staining-based flow cytometry (reference value: 78.1%); type: functional; conditions: read-out: Activity
HCT-116 [33] = assay: Antiproliferative activity against bax deficient human HCT116 cells assessed after 72 hrs by MTT assay; type: functional, cell-based; conditions: HCT-116, 72 h
HCT-116 [34] = assay: Induction of morphological changes in human HCT116 cells at 0.1 to 3 uM after 68 hrs by microscopic method; type: functional, cell-based
2008 [35] = assay: Induction of morphological changes in human OV2008 cells at 0.1 to 3 uM after 68 hrs by microscopic method; type: functional, cell-based
A2780 [36] = assay: Induction of apoptosis in human A2780 cells assessed as condensation of nuclei at 0.5 to 2 uM measured after overnight incubation by DAPI-staining based microscopy; type: functional, cell-based

COc1ccc(-c2nc(O)c3c4c(sc3n2)CCCC4)cc1
IC50 (HCT-116 [1]): 600 nM
IC50 (HCT-15): 700 nM
IC50 [2]: 800 nM
IC50 (A2780 [3]): 1200 nM
inhibition (HCT-116 [4]): Dose-dependent effect
inhibition (A2780 [5]): Dose-dependent effect
Activity (HCT-116 [6]): 37.5%
Activity (HCT-116 [7]): 12.3%
Activity (HCT-116 [8]): 29.5%
Activity (HCT-116 [9]): 54.8%
Activity 2008 [10]: 4.17%
Activity 2008 [11]: 19.5%
Activity 2008 [12]: 44.6%
Activity 2008 [13]: 31.8%
Activity (A2780 [14]): 7.99%
Activity (A2780 [15]): 10.4%
Activity (A2780 [16]): 57.8%
Activity (A2780 [17]): 9.02%
Activity (HCT-116 [18]): Active
Activity (HCT-116 [19]): Active
Activity (HCT-116 [20]): Active
Activity 2008 [21]: Active
Activity (HCT-116 [22]): Active
Activity 2008 [23]: Active
Activity 2008 [24]: Active
Activity (HCT-116 [25]): 0%
viability at 2 µM (HCT-116 [26]): 71.1%
Activity (HCT-116 [27]): 0%
Activity (HCT-116 [28]): 3.04%
Activity 2008 [29]: 4.31%
viability at 2 µM 2008 [30]: 73.9%
Activity 2008 [31]: 22.2%
viability at 2 µM (A2780 [32]): 42.9%
IC50 (HCT-116 [33]): 1200 nM
Activity (HCT-116 [34]): Active
Activity 2008 [35]: Active
Activity (A2780 [36]): Active
